Data from patent US20230355626A1, “INHIBITORS OF HUMAN IMMUNODEFICIENCY VIRUS REPLICATION” (VIIV HEALTHCARE UK (NO.5) LIMITED, priority 2020, published 2023).

What was measured:
[1] = test system: recombinant NL4-3 virus; experiment: HIV cell culture assay (antiviral activity, luciferase readout in infected MT-2 cells); assay type: cell-based; conditions: Human immunodeficiency virus 1, NL43, MT2
Experimental: HIV cell culture assay—MT-2 cells, 293T cells and the proviral DNA clone of NL4-3 virus were obtained from the NIH AIDS Research and Reference Reagent Program. MT-2 cells were propagated in RPMI 1640 media supplemented with 10% heat inactivated fetal bovine serum (FBS), 100 μg/ml penicillin G and up to 100 units/mL streptomycin. The 293T cells were propagated in DMEM media supplemented with 10% heat inactivated FBS, 100 μg/mL penicillin G and 100 μg/mL streptomycin. A recombinant NL4-3 proviral clone, in which a section of the nef gene was replaced with the Renilla luciferase gene, was used to make the reference virus used in these studies. The recombinant virus was prepared through transfection of the recombinant NL4-3 proviral clone into 293T cells using Transit-293 Transfection Reagent from Mirus Bio LLC (Madison, WI). Supernatant was harvested after 2-3 days and the amount of virus present was titered in MT-2 cells using luciferase enzyme activity as a marker by measuring luciferase enzyme activity. Luciferase was quantitated using the EnduRen Live Cell Substrate from Promega (Madison, WI). Antiviral activities of compounds toward the recombinant virus were quantified by measuring luciferase activity in MT-2 cells infected for 4-5 days with the recombinant virus in the presence of serial dilutions of the compound.
The 50% effective concentration (EC50) was calculated by using the exponential form of the median effect equation where (Fa)=1/[1+(ED50/drug conc.)m] (Johnson VA, Byington RT. Infectivity Assay. In Techniques in HIV Research. ed. Aldovini A, Walker BD. 71-76. New York: Stockton Press.1990). Curve fitting and analysis were performed with ActivityBase XE Runner software version 9.1.0.4 using model 203 (ID Business Solutions, LTD, Guildford, UK).

[2] = Compound cytotoxicity, XTT-based colorimetric assay; assay type: cell-based; conditions: human; uninfected MT2 cells, day 4, XTT assay
Experimental: Compound cytotoxicity and the corresponding CC50 values were determined using the same protocol as described in the antiviral assay except that uninfected cells were used. Cytotoxicity was assessed on day 4 in uninfected MT2 cells by using an XTT (2,3-bis[2-Methoxy-4-nitro-5-sulfophenyl]-2H-tetrazolium-5-carboxyanilide inner salt)-based colorimetric assay (Sigma-Aldrich, St Louis, Mo).

| Compound | EC50 [1] | CC50 at 4 day [2] |
| --- | --- | --- |
| Cn1nc(NS(C)(=O)=O)c2c(Cl)ccc(-n3c([C@H](Cc4cc(F)cc(F)c4)NC(=O)Cn4nc(C(F)F)c5c4C(F)(F)[C@@H]4C[C@H]54)nc4nc(OCC5(C(F)(F)F)CC5)ccc4c3=O)c21 (atropisomer, axis not shown; (P)) [Example 21, N-((S)-1-((3P)-3-(4-chloro-1-methyl-3-(methylsulfonamido)-1H-indazol-7-yl)-4-oxo-7-((1-(trifluoromethyl)cyclopropyl)methoxy)-3,4-dihydropyrido[2,3-d]pyrimidin-2-yl)-2-(3,5-difluorophenyl)ethyl)-2-((3bS,4aR)-3-(difluoromethyl)-5,5-difluoro-3b,4,4a,5-tetrahydro-1H-cyclopropa[3,4]cyclopenta[1,2-c]pyrazol-1-yl)acetamide] | 0.046 nM | > 500 nM |
| Cn1nc(NS(C)(=O)=O)c2c(Cl)ccc(-n3c([C@H](Cc4cc(F)cc(F)c4)NC(=O)Cn4nc(C(F)F)c5c4C(F)(F)[C@@H]4C[C@H]54)nc4nc(OCc5cccc(C(F)(F)F)n5)ccc4c3=O)c21 (atropisomer, axis not shown; (P)) [Example 22, N-((S)-1-((3P)-3-(4-chloro-1-methyl-3-(methylsulfonamido)-1H-indazol-7-yl)-4-oxo-7-((6-(trifluoromethyl)pyridin-2-yl)methoxy)-3,4-dihydropyrido[2,3-d]pyrimidin-2-yl)-2-(3,5-difluorophenyl)ethyl)-2-((3bS,4aR)-3-(difluoromethyl)-5,5-difluoro-3b,4,4a,5-tetrahydro-1H-cyclopropa[3,4]cyclopenta[1,2-c]pyrazol-1-yl)acetamide] | 0.055 nM | > 100 nM |
| Cn1nc(NS(C)(=O)=O)c2c(Cl)ccc(-n3c([C@H](Cc4cc(F)cc(F)c4)NC(=O)Cn4nc(C(F)F)c5c4C(F)(F)[C@@H]4C[C@H]54)nc4nc(OCc5nc(C(F)(F)F)cs5)ccc4c3=O)c21 (atropisomer, axis not shown; (P)) [Example 23, N-((S)-1-((3P)-3-(4-chloro-1-methyl-3-(methylsulfonamido)-1H-indazol-7-yl)-4-oxo-7-((4-(trifluoromethyl)thiazol-2-yl)methoxy)-3,4-dihydropyrido[2,3-d]pyrimidin-2-yl)-2-(3,5-difluorophenyl)ethyl)-2-((3bS,4aR)-3-(difluoromethyl)-5,5-difluoro-3b,4,4a,5-tetrahydro-1H-cyclopropa[3,4]cyclopenta[1,2-c]pyrazol-1-yl)acetamide] | 0.1 nM | > 100 nM |
| Cn1nc(NS(C)(=O)=O)c2c(Cl)ccc(-n3c([C@H](Cc4cc(F)cc(F)c4)NC(=O)Cn4nc(C(F)F)c5c4C(F)(F)[C@@H]4C[C@H]54)nc4nc(OCc5ccn(CC(F)(F)F)n5)ccc4c3=O)c21 (atropisomer, axis not shown; (P)) [Example 24, N-((S)-1-((3P)-3-(4-chloro-1-methyl-3-(methylsulfonamido)-1H-indazol-7-yl)-4-oxo-7-((1-(2,2,2-trifluoroethyl)-1H-pyrazol-3-yl)methoxy)-3,4-dihydropyrido[2,3-d]pyrimidin-2-yl)-2-(3,5-difluorophenyl)ethyl)-2-((3bS,4aR)-3-(difluoromethyl)-5,5-difluoro-3b,4,4a,5-tetrahydro-1H-cyclopropa[3,4]cyclopenta[1,2-c]pyrazol-1-yl)acetamide] | 0.057 nM | > 100 nM |
| Cn1nc(NS(C)(=O)=O)c2c(Cl)ccc(-n3c([C@H](Cc4cc(F)cc(F)c4)NC(=O)Cn4nc(C(F)F)c5c4C(F)(F)[C@@H]4C[C@H]54)nc4nc(OCCNCC(F)(F)F)ccc4c3=O)c21 (atropisomer, axis not shown; (P)) [Example 25, N-((S)-1-((3P)-3-(4-chloro-1-methyl-3-(methylsulfonamido)-1H-indazol-7-yl)-4-oxo-7-(2-((2,2,2-trifluoroethyl)amino)ethoxy)-3,4-dihydropyrido[2,3-d]pyrimidin-2-yl)-2-(3,5-difluorophenyl)ethyl)-2-((3bS,4aR)-3-(difluoromethyl)-5,5-difluoro-3b,4,4a,5-tetrahydro-1H-cyclopropa[3,4]cyclopenta[1,2-c]pyrazol-1-yl)acetamide] | 0.057 nM | > 100 nM |
| Cn1nc(NS(C)(=O)=O)c2c(Cl)ccc(-n3c([C@H](Cc4cc(F)cc(F)c4)NC(=O)Cn4nc(C(F)F)c5c4C(F)(F)[C@@H]4C[C@H]54)nc4nc(OCCOCC(F)(F)F)ccc4c3=O)c21 (atropisomer, axis not shown; (P)) [Example 26, N-((S)-1-((3P)-3-(4-chloro-1-methyl-3-(methylsulfonamido)-1H-indazol-7-yl)-4-oxo-7-(2-(2,2,2-trifluoroethoxy)ethoxy)-3,4-dihydropyrido[2,3-d]pyrimidin-2-yl)-2-(3,5-difluorophenyl)ethyl)-2-((3bS,4aR)-3-(difluoromethyl)-5,5-difluoro-3b,4,4a,5-tetrahydro-1H-cyclopropa[3,4]cyclopenta[1,2-c]pyrazol-1-yl)acetamide] | 0.024 nM | > 100 nM |
| Cn1nc(NS(C)(=O)=O)c2c(Cl)ccc(-n3c([C@H](Cc4cc(F)cc(F)c4)NC(=O)Cn4nc(C(F)F)c5c4C(F)(F)[C@@H]4C[C@H]54)nc4nc(OCC(F)(F)C(F)F)ccc4c3=O)c21 (atropisomer, axis not shown; (P)) [Example 27, N-((S)-1-((3P,3P)-3-(4-chloro-1-methyl-3-(methylsulfonamido)-1H-indazol-7-yl)-4-oxo-7-(2,2,3,3-tetrafluoropropoxy)-3,4-dihydropyrido[2,3-d]pyrimidin-2-yl)-2-(3,5-difluorophenyl)ethyl)-2-((3bS,4aR)-3-(difluoromethyl)-5,5-difluoro-3b,4,4a,5-tetrahydro-1H-cyclopropa[3,4]cyclopenta[1,2-c]pyrazol-1-yl)acetamide] | 0.022 nM | > 100 nM |
| Cn1nc(NS(C)(=O)=O)c2c(Cl)ccc(-n3c([C@H](Cc4cc(F)cc(F)c4)NC(=O)Cn4nc(C(F)F)c5c4C(F)(F)[C@@H]4C[C@H]54)nc4nc(OCc5nccn5C(F)F)ccc4c3=O)c21 (atropisomer, axis not shown; (P)) [Example 28, N-((S)-1-((3P)-3-(4-chloro-1-methyl-3-(methylsulfonamido)-1H-indazol-7-yl)-7-((1-(difluoromethyl)-1H-imidazol-2-yl)methoxy)-4-oxo-3,4-dihydropyrido[2,3-d]pyrimidin-2-yl)-2-(3,5-difluorophenyl)ethyl)-2-((3bS,4aR)-3-(difluoromethyl)-5,5-difluoro-3b,4,4a,5-tetrahydro-1H-cyclopropa[3,4]cyclopenta[1,2-c]pyrazol-1-yl)acetamide] | 0.87 nM | > 100 nM |
| Cn1nc(NS(C)(=O)=O)c2c(Cl)ccc(-n3c([C@H](Cc4cc(F)cc(F)c4)NC(=O)Cn4nc(C(F)F)c5c4C(F)(F)[C@@H]4C[C@H]54)nc4nc(OCCOC(F)F)ccc4c3=O)c21 (atropisomer, axis not shown; (P)) [Example 29, N-((S)-1-((3P)-3-(4-chloro-1-methyl-3-(methylsulfonamido)-1H-indazol-7-yl)-7-(2-(difluoromethoxy)ethoxy)-4-oxo-3,4-dihydropyrido[2,3-d]pyrimidin-2-yl)-2-(3,5-difluorophenyl)ethyl)-2-((3bS,4aR)-3-(difluoromethyl)-5,5-difluoro-3b,4,4a,5-tetrahydro-1H-cyclopropa[3,4]cyclopenta[1,2-c]pyrazol-1-yl)acetamide] | 0.033 nM | > 100 nM |
| Cn1nc(NS(C)(=O)=O)c2c(Cl)ccc(-n3c([C@H](Cc4cc(F)cc(F)c4)NC(=O)Cn4nc(C(F)F)c5c4C(F)(F)[C@@H]4C[C@H]54)nc4nc(OC5CC(F)(F)C5)ccc4c3=O)c21 (atropisomer, axis not shown; (P)) [Example 30, N-[(1S)-1-[(3P)-3-(4-chloro-3-methanesulfonamido-1-methyl-1H-indazol-7-yl)-7-(3,3-difluorocyclobutoxy)-4-oxo-3H,4H-pyrido[2,3-d]pyrimidin-2-yl]-2-(3,5-difluorophenyl)ethyl]-2-[(2S,4R)-9-(difluoromethyl)-5,5-difluoro-7,8-diazatricyclo[4.3.0.0^2,^4]nona-1(6),8-dien-7-yl]acetamide] | 0.031 nM | > 500 nM |
